Key:
cytochrome P-450 = test: Cytochrome P-450 concentration in liver after treatment; assay type: in vivo, Female Hann.-Wistar rats; details: 24 h after single 40 mg/kg. oral dose; control 12.8 ± 0.63 = 100 ± 4.9%
Protocol: (§1) To evaluate the enzyme inducing activity of the compounds of formula (I) the activity of the polysubstrate monooxygenase enzyme system of the liver, after treatment with placebo and the test compounds, respectively, was also tested. Female Hann.-Wistar rats weighing 50-60 g. each were administered a single 40 mg/kg. dose of the test compounds orally. 24 hours after treatment the animals were decapitated and their livers were eliminated. […] The cytochrome P-450 concentration was determined on the basis of the carbon monoxide differential spectrum of a reduced microsome suspension (Omura T. et al.: J. Biol. Chem. 239, 2370 (1964)). The quantity of cytochrome b-5 was determined from a NaDH differential spectrum (Raw J. et al.: J. Biol. Chem., 234, 1867 (1959)); the activity of NADPH: ferricytochrome C (P-450) reductase (E.C. 1.6.2.4) was measured by the method of Williams C. […] The activity of the aniline hydroxylase from the velocity of the p-amino-phenol formation was determined by the method of R. S. et al.: Toxicol. […] Pharmacol., 22, 50 (1972), while the aminopyrine-demethylase activity was measured by the quantity of the formaldehyde formed, using the method developed by Gourlay G. K. et al.: Biochem. Pharmacol., 27, 965 (1978). The protein content was determined using the method by Lowry O. H. et al.: J. Biochem., 193, 265 (1951). […]

Hann.-Wistar rats = test: Acute toxicity, oral; assay type: in vivo; details: 500 mg./kg. p.o. single dose; 14 days observation
Protocol: (§2) The acute toxicity of the compounds of formula (I) was determined on Hann.-Wistar rats selected from both sexes, weighing 160-180 g. each. The test compounds were administered in a single 500 mg./kg. oral dose. […] The results are set forth in the following Table 3, in which the percentage of the dead animals is indicated.

hexabarbital oxidase = test: Hexabarbital sleeping time (hexabarbital oxidase activity in vivo); parameters: species or system Hann.-Wistar rats; details: hexabarbital sodium 60 mg./kg. i.v., x ± S.E.; for Hexabarbital sleeping time in %-age of the control, 1 h: 1 h after single 40 mg./kg. oral dose; for Hexabarbital sleeping time in %-age of the control, 24 h: 24 h after single 40 mg./kg. oral dose
Protocol: The enzyme inducing activity was tested by the following methods: The change of hexabarbital oxidase activity was measured on Hann.-Wistar rats weighing 50-60 g. which were administered single 40 mg./kg. doses of the test compounds orally. One and 24 hours after treatment the animals were anaesthetized by a 60 mg./kg. i.v. dose of hexabarbital sodium, and the sleeping time, i.e. the time between the loss of righting reflex and full awakeness was measured (Noordhoex J.: Eur. J. Pharmacol., 3, 242, 1968). As a reference compound phenobarbital was used. The average of the groups and the standard error were determined. The results are given in Table 1, expressed in % of the control.

[1] = Relative weight of liver after treatment; assay type: in vivo, Female Hann.-Wistar rats; details: 24 h after single 40 mg/kg. oral dose; control 4.3 ± 0.17 = 100 ± 3.9%
Protocol: as §1

aminopyrine demethylase = test: Aminopyrine demethylase activity in liver after treatment; assay type: in vivo, Female Hann.-Wistar rats; details: 24 h after single 40 mg/kg. oral dose; control 254.8 ± 7.47 = 100 ± 2.9%
Protocol: as §1

[2] = tested on: NADPH: ferricytochrome C (P-450) reductase (E.C. 1.6.2.4); test: Activity of NADPH: ferricytochrome C (P-450) reductase in liver after treatment; assay type: in vivo, Female Hann.-Wistar rats; details: 24 h after single 40 mg/kg. oral dose; control 4868 ± 296.2 = 100 ± 6.1%
Protocol: as §1

cytochrome b-5 = test: Quantity of cytochrome b-5 in liver after treatment; assay type: in vivo, Female Hann.-Wistar rats; details: 24 h after single 40 mg/kg. oral dose; control 8.6 ± 0.43 = 100 ± 5.0%
Protocol: as §1

aniline hydroxylase = test: Aniline hydroxylase activity in liver after treatment; assay type: in vivo, Female Hann.-Wistar rats; details: 24 h after single 40 mg/kg. oral dose; control 20.3 ± 0.88 = 100 ± 4.3%
Protocol: as §1

[3] = Microsomal protein content of liver after treatment (Lowry); assay type: in vivo, Female Hann.-Wistar rats; details: 24 h after single 40 mg/kg. oral dose; control 29.3 ± 1.01 = 100 ± 3.4%
Protocol: as §1

[4] = CNS activity (electroshock, metrazole, thiosemicarbazide, strichnine, nicotine spasm, rotating rod, physostigmine lethality, yohimbine potentiation, analgesia); details: oral, already at 40 mg./kg.; in words
Protocol: The compounds of the formula (I) and phenobarbital were administered orally, in a dose of 40 mg./kg. and 80 mg./kg.

Acute toxicity, oral = assay type: in vivo, Hann.-Wistar rats; details: rat, in vivo, po
Protocol: as §2

| SMILES | cytochrome P-450 (nmoles/g. of liver), % of the control (cytochrome P-450) [%] | Dead animals (%) (Hann.-Wistar rats) | Hexabarbital sleeping time in %-age of the control, 1 h (hexabarbital oxidase) | Hexabarbital sleeping time in %-age of the control, 24 h (hexabarbital oxidase) | relative weight of liver (g./100 g. of body weight), % of the control [1] [%] | aminopyrine demethylase (nmoles/g. of liver/min.), % of the control (aminopyrine demethylase) [%] | C(P-450) reductase (nmoles/g. of liver/min.), % of the control [2] [%] | cytochrome b-5 (nmoles/g. of liver), % of the control (cytochrome b-5) [%] | aniline hydroxylase (nmoles/g. of liver/min.), % of the control (aniline hydroxylase) [%] | microsomal protein (mg./g. of liver), % of the control [3] [%] | CNS activity (anticonvulsive, muscle coordinating, sedative) [4] | mortality at 336 h (Acute toxicity, oral; 500 mg./kg. p.o. single dose, 14 days observation, read-out: Dead animals (%)) [%] | LD50 (Acute toxicity, oral; footnote to Table 3) [mg/kg] |
| --- | --- | --- | --- | --- | --- | --- | --- | --- | --- | --- | --- | --- | --- |
| CCC(O)(c1ccc(F)cc1)c1ccccc1OCc1ccccc1 (stereo not shown) [A, 1-(4-fluorophenyl)-1-(2-benzyloxyphenyl)-propane-1-ol] | 170 ± 8.8 | .phi. | 95 ± 20.2 % of the control | 46 ± 3.5 % of the control | 109 ± 2.5 | 150 ± 11.1 | 155 ± 6.9 | 124 ± 3.8 | 168 ± 8.9 | 109 ± 3.8 |  |  |  |
| CCC(O)(c1cc(C)ccc1C)c1ccccc1OCc1ccccc1 (stereo not shown) [B, 1-(2,5-dimethylphenyl)-1-(2-benzyloxyphenyl)-propane-1-ol] |  | .phi. | 119 ± 7.7 % of the control | 58 ± 8.0 % of the control |  |  |  |  |  |  |  |  |  |
| CCN(CC)C(=O)COc1ccc(C(O)(CC)c2cccc(C(F)(F)F)c2)cc1 (stereo not shown) [C, 1-(3-trifluoromethylphenyl)-1-[4-(diethylcarbamoylmethoxy)-phenyl]-propane-1-ol] |  | .phi. | 170 ± 10.0 % of the control | 44 ± 2.0 % of the control |  |  |  |  |  |  |  |  |  |
| CCN(CC)C(=O)COc1ccccc1C(O)(CC)c1cccc(Cl)c1 (stereo not shown) [Compound D, 1-(3-chlorophenyl)-1-[2-(diethylcarbamoylmethoxy)-phenyl]-propane-1-ol] | 199 ± 17.7 | .phi. | 139 ± 14.4 % of the control | 50 ± 3.0 % of the control | 107 ± 4.4 | 129 ± 6.0 | 144 ± 11.9 | 122 ± 6.3 | 189 ± 12.3 | 120 ± 6.7 |  |  |  |
| CCOC(=O)COc1ccccc1C(O)(CC)c1cccc(Cl)c1 (stereo not shown) [E, 1-(3-chlorophenyl)-1-[2-(ethoxycarbonylmethoxy)-phenyl]propane-1-ol] |  | .phi. | 117 ± 1.1 % of the control | 58 ± 2.4 % of the control |  |  |  |  |  |  |  |  |  |
| CCC1(c2ccccc2)C(=O)NC(=O)NC1=O [phenobarbital, reference compound] |  |  | 250 ± 15.8 % of the control | 60 ± 7.3 % of the control |  |  |  |  |  |  | significant anticonvulsive muscle coordinating and sedative effect | 100 | 254 |

Reference: US4605785A, “1,1-diphenylpropanol derivatives, process for their preparation and pharmaceutical compositions containing them” (Richter Gedeon Vegyeszeti Gyar RT, priority 1982, dated 1986)
